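Tested at 5 concentrations; 48 h exposure; 96-well plates; endpoints linearly interpolated, else capped at highest concentration. TGI: concentration producing complete growth inhibition.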
Legend:
Test in all cases: DTP human tumour cell line panel, 48 h
HS 578T breast = test system: HS 578T breast
ACHN renal = test system: ACHN renal
U251 CNS = test system: U251 CNS
HT29 colon = test system: HT29 colon
BT-549 breast = test system: BT-549 breast
DU-145 prostate = test system: DU-145 prostate
MALME-3M melanoma = test system: MALME-3M melanoma
A549 NSCLC = test system: A549 NSCLC
SW-620 colon = test system: SW-620 colon
OVCAR-4 ovarian = test system: OVCAR-4 ovarian
TK-10 renal = test system: TK-10 renal

Structure (SMILES) | TGI (HS 578T breast) | TGI (ACHN renal) | TGI (U251 CNS) | TGI (HT29 colon) | TGI (BT-549 breast) | TGI (DU-145 prostate) | TGI (MALME-3M melanoma) | TGI (A549 NSCLC) | TGI (SW-620 colon) | TGI (OVCAR-4 ovarian) | TGI (TK-10 renal)
NC1=Nc2ccccc2Sc2nncn21 | > 100 µM | > 100 µM | > 100 µM | > 100 µM | > 100 µM | > 100 µM | > 100 µM | > 100 µM | > 100 µM | > 100 µM | > 100 µM
CCOP(=O)(OCC)Oc1c(OC)c2[nH]c(C(=O)OC)cc2c2c(C(=O)O)c[nH]c12 | > 100 µM | > 100 µM | > 100 µM | > 100 µM | > 100 µM | > 100 µM | > 100 µM | > 100 µM | > 100 µM | > 100 µM | > 100 µM
COc1ccc(/C=N\N(C)Cc2cccc3ccsc23)cc1 | > 100 µM | > 100 µM | > 100 µM | > 100 µM | > 100 µM | > 100 µM | > 100 µM | > 100 µM | > 100 µM | > 100 µM | > 100 µM
Nn1c(CCCCCCCCc2nnc(-c3c(O)ccc4ccccc34)n2N)nnc1-c1c(O)ccc2ccccc12 | > 100 µM | > 100 µM | > 100 µM | > 100 µM | > 100 µM | > 100 µM | > 100 µM | > 100 µM | > 100 µM | > 100 µM | > 100 µM
CCOC(=O)c1c(O)cn2c1[nH]c1cccc3cccc2c31 | > 100 µM | > 100 µM | > 100 µM | > 100 µM | > 100 µM | > 100 µM | > 100 µM | > 100 µM | > 100 µM | > 100 µM | > 100 µM
COC(NC(=O)Nc1ccc(C)cc1)(C(F)(F)F)C(F)(F)F | > 100 µM | > 100 µM | 45 µM | > 100 µM | 83.5 µM | > 100 µM | > 100 µM | > 100 µM | > 100 µM | > 100 µM | > 100 µM
NCC(=O)Nc1ccccc1 | > 100 µM | > 100 µM | > 100 µM | > 100 µM | > 100 µM | > 100 µM | > 100 µM | > 100 µM | > 100 µM | > 100 µM | > 100 µM
